{
  "source": "ChEMBL document CHEMBL3045576",
  "about": "“Azadirachtin avoidance by larvae and adult females of the tomato leafminer Tuta absoluta” (2013)",
  "key": {"[1]": {"tested_on": "Tuta absoluta", "assay": "Walking avoidance activity against second-instar larval stage of Tuta absoluta Vicosa infested compound-pretreated filter paper assessed as effect on walking time at LC90 concentration measured for 10 min", "format": "functional, organism-based"}, "[2]": {"tested_on": "Tuta absoluta", "assay": "Egg-laying avoidance activity against non-sexed adult stage of Tuta absoluta Araguari in compound-pretreated tomato leaves assessed as decrease in number of eggs laid at LC10 to LC90 concentration measured for 2 days by no-choice test", "format": "functional, organism-based"}, "[3]": {"tested_on": "Tuta absoluta", "assay": "Egg-laying avoidance activity against non-sexed adult stage of Tuta absoluta Vicosa in compound-pretreated tomato leaves assessed as decrease in number of eggs laid at LC10 to LC90 concentration measured for 2 days by no-choice test", "format": "functional, organism-based"}, "[4]": {"tested_on": "Tuta absoluta", "assay": "Egg-laying avoidance activity against non-sexed adult stage of Tuta absoluta Araguari in compound-pretreated tomato leaves assessed as decrease in number of eggs laid at equal to and greater than LC50 concentration measured for 2 days by free-choice test", "format": "functional, organism-based"}, "[5]": {"tested_on": "Tuta absoluta", "assay": "Egg-laying avoidance activity against non-sexed adult stage of Tuta absoluta Vicosa in compound-pretreated tomato leaves assessed as decrease in number of eggs laid measured for 2 days by free-choice test", "format": "functional, organism-based"}, "[6]": {"tested_on": "Tuta absoluta", "assay": "Resistance ratio of LC90 for Tuta absoluta Vicosa larvae to LC90 for Tuta absoluta Araguari larvae", "format": "functional"}, "[7]": {"tested_on": "Tuta absoluta", "assay": "Resistance ratio of LC50 for Tuta absoluta Vicosa larvae to LC50 for Tuta absoluta Araguari larvae", "format": "functional"}, "[8]": {"tested_on": "Tuta absoluta", "assay": "Resistance ratio of LC10 for Tuta absoluta Vicosa larvae to LC10 for Tuta absoluta Araguari larvae", "format": "functional"}, "[9]": {"tested_on": "Tuta absoluta", "assay": "Insecticidal activity against Tuta absoluta Araguari larvae in compound-pre-treated tomato leaves assessed as mortality after 144 hr", "format": "functional"}, "[10]": {"tested_on": "Tuta absoluta", "assay": "Insecticidal activity against Tuta absoluta Vicosa larvae in compound-pre-treated tomato leaves assessed as mortality after 144 hr", "format": "functional"}, "[11]": {"tested_on": "Tuta absoluta", "assay": "Insecticidal activity against second-instar larval stage of Tuta absoluta in tomato leaves assessed as delay in larval development at 27 mg ai/L incubated for 5 s prior to larval infestation after 9 days", "format": "functional, organism-based"}, "[12]": {"tested_on": "Tuta absoluta", "assay": "Insecticidal activity against second-instar larval stage of Tuta absoluta in tomato leaves assessed as survival rate at 27 mg ai/L incubated for 5 s prior to larval infestation after 9 days (reference value: >60%)", "format": "functional", "settings": "216 h"}, "[13]": {"tested_on": "Tuta absoluta", "assay": "Insecticidal activity against second-instar larval stage of Tuta absoluta in tomato leaves assessed as survival rate at 1.7 mg ai/L incubated for 5 s prior to larval infestation after 9 days (reference value: >60%)", "format": "functional", "settings": "216 h"}, "[14]": {"tested_on": "Tuta absoluta", "assay": "Effect on leaf mining activity of Tuta absoluta Vicosa second-instar larvae in compound-pretreated tomato leaves assessed as length of time required to mine the leaf at LC10 to LC90 concentration", "format": "functional"}, "[15]": {"tested_on": "Tuta absoluta", "assay": "Effect on leaf mining activity of Tuta absoluta Araguari second-instar larvae in compound-pretreated tomato leaves assessed as length of time required to mine the leaf at LC10 to LC90 concentration", "format": "functional"}, "[16]": {"tested_on": "Tuta absoluta", "assay": "Walking avoidance activity against second-instar larval stage of Tuta absoluta Araguari in compound-pretreated tomato leaves assessed as decrease in walking time at LC10 concentration measured after 6 hr", "format": "functional, organism-based"}, "[17]": {"tested_on": "Tuta absoluta", "assay": "Walking avoidance activity against second-instar larval stage of Tuta absoluta Vicosa in compound-pretreated tomato leaves assessed as decrease in walking time at LC10 concentration measured after 6 hr", "format": "functional, organism-based"}, "[18]": {"tested_on": "Tuta absoluta", "assay": "Walking avoidance activity against second-instar larval stage of Tuta absoluta Araguari in compound-pretreated tomato leaves assessed as decrease in walking time at LC50 to LC90 concentration measured after 6 hr", "format": "functional, organism-based"}, "[19]": {"tested_on": "Tuta absoluta", "assay": "Walking avoidance activity against second-instar larval stage of Tuta absoluta Vicosa in compound-pretreated tomato leaves assessed as decrease in walking time at LC50 to LC90 concentration measured after 6 hr", "format": "functional, organism-based"}, "[20]": {"tested_on": "Tuta absoluta", "assay": "Walking avoidance activity against fourth-instar larval stage of Tuta absoluta Araguari infested compound-pretreated filter paper assessed as effect on walking time at LC90 concentration measured for 10 min", "format": "functional, organism-based"}, "[21]": {"tested_on": "Tuta absoluta", "assay": "Walking avoidance activity against second-instar larval stage of Tuta absoluta Araguari infested compound-pretreated filter paper assessed as effect on walking time at LC90 concentration measured for 10 min", "format": "functional, organism-based"}, "[22]": {"tested_on": "Tuta absoluta", "assay": "Walking avoidance activity against fourth-instar larval stage of Tuta absoluta Vicosa infested compound-pretreated filter paper assessed as effect on walking time at LC90 concentration measured for 10 min", "format": "functional, organism-based"}},
  "note": "The source made the active and inactive calls. The rule behind the calls is not given here.",
  "data": [
    {"compound": "C/C=C(\\C)C(=O)O[C@H]1C[C@@H](OC(C)=O)[C@@]2(C(=O)OC)CO[C@H]3[C@@H](O)[C@@](C)([C@]45O[C@@]4(C)[C@@H]4C[C@H]5O[C@@H]5OC=C[C@@]54O)[C@H]4[C@]1(CO[C@]4(O)C(=O)OC)[C@@H]32", "note": "[AZADIRACHTIN A]", "values": [
      {"measurement": "Activity", "setting": "[1]", "result": "inactive"},
      {"measurement": "inhibition", "setting": "[2]", "result": "inactive"},
      {"measurement": "inhibition", "setting": "[3]", "result": "inactive"},
      {"measurement": "inhibition", "setting": "[4]", "result": "Active"},
      {"measurement": "inhibition", "setting": "[5]", "result": "Dose-dependent effect"},
      {"measurement": "Ratio", "setting": "[6]", "result": 1.96},
      {"measurement": "Ratio", "setting": "[7]", "result": 1.8},
      {"measurement": "Ratio", "setting": "[8]", "result": 1.65},
      {"measurement": "LC10", "setting": "[9]", "result": 0.97, "unit": "mgAi/L"},
      {"measurement": "LC50", "setting": "[9]", "result": 5.62, "unit": "mgAi/L"},
      {"measurement": "LC90", "setting": "[9]", "result": 32.71, "unit": "mgAi/L"},
      {"measurement": "LC10", "setting": "[10]", "result": 1.59, "unit": "mgAi/L"},
      {"measurement": "LC50", "setting": "[10]", "result": 10.09, "unit": "mgAi/L"},
      {"measurement": "LC90", "setting": "[10]", "result": 64.06, "unit": "mgAi/L"},
      {"measurement": "Activity", "setting": "[11]", "result": "Active"},
      {"measurement": "survival at 27 µg/mL", "setting": "[12]", "result": "< 4", "unit": "%"},
      {"measurement": "survival at 1.7 µg/mL", "setting": "[13]", "result": 25, "unit": "%"},
      {"measurement": "Time", "setting": "[14]", "result": 33.56, "unit": "min"},
      {"measurement": "Time", "setting": "[15]", "result": 38.72, "unit": "min"},
      {"measurement": "inhibition", "setting": "[16]", "result": "inactive"},
      {"measurement": "inhibition", "setting": "[17]", "result": "inactive"},
      {"measurement": "inhibition", "setting": "[18]", "result": "Active"},
      {"measurement": "inhibition", "setting": "[19]", "result": "Active"},
      {"measurement": "Activity", "setting": "[20]", "result": "inactive"},
      {"measurement": "Activity", "setting": "[21]", "result": "inactive"},
      {"measurement": "Activity", "setting": "[22]", "result": "inactive"}
    ]}
  ]
}
